Results: PMC6407579, “New flavonoid – N,N-dibenzyl(N-methyl)amine hybrids: Multi-target-directed agents for Alzheimer´s disease endowed with neurogenic properties” (Journal of Enzyme Inhibition and Medicinal Chemistry, 2019)
Values joined by “and” are separate entries in the source; they are usually repeats but may differ in a detail not shown here. Equal entries are not always repeated. Where two headings read alike, the source gives them in different places.

Columns and labels:
[1] = biological target: T1, recombinant hMAO-A (Homo sapiens, UniProt P21397); test: biochemical; assay type: biochemical; details: for IC50: mean ± SEM (n = 3), 100 µM highest concentration tested
T1 sequence (P21397 1-527): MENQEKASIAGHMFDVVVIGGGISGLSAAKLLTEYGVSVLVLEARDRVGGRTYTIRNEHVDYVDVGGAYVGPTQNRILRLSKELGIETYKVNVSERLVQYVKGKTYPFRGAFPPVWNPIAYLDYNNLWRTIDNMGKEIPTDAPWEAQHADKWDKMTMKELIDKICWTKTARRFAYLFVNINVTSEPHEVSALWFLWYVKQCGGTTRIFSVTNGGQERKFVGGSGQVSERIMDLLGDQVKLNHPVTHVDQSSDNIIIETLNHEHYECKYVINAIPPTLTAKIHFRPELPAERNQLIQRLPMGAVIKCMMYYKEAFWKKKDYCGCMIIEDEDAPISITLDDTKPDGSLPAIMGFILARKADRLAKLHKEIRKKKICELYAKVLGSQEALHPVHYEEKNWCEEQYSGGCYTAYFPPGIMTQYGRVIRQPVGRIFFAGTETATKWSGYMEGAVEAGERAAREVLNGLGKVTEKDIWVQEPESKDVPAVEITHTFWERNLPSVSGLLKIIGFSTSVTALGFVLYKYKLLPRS

[2] = biological target: T2, human recombinant AChE (hAChE) (Homo sapiens, UniProt P22303); test: biochemical
T2 construct: purchased Sigma Chemical Co
Method: The Ellman method was followed, using human recombinant AChE and BuChE from human serum. The assay solution consisted of 0.1 M phosphate buffer pH 8.0, 400 μM 5,5´-dithiobis(2-nitrobenzoic acid) (DTNB, Ellman’s reagent), 0.05 U/mL hAChE (Sigma Chemical Co.) or 0.024 U/mL hBuChE (Sigma Chemical Co.), and 800 μM acetylthiocholine iodide, or 500 μM butyrylthiocholine as the substrate of the enzymatic reaction, respectively. The compounds tested were added to the assay solution and preincubated with the enzyme for 5 min at 30 °C. After that period, the substrate was added.

[3] = biological target: T3, recombinant hMAO-B (Homo sapiens, UniProt P27338); test: biochemical; assay type: biochemical; details: mean ± SEM (n = 3); 100 µM highest concentration tested
T3 sequence (P27338 1-520): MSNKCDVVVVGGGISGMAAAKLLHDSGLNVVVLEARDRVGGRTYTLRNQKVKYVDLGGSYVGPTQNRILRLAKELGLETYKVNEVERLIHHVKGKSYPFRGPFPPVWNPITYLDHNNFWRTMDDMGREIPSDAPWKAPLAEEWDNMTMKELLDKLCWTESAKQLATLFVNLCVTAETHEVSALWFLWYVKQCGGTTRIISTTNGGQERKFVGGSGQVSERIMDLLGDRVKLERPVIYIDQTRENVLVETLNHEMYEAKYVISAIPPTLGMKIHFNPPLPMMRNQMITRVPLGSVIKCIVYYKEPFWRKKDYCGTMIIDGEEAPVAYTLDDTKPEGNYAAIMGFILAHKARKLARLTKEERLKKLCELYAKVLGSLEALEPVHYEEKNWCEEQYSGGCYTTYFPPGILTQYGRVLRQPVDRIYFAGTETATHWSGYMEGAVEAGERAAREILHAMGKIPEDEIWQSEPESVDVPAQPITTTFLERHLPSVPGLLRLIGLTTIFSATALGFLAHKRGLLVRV

[4] = biological target: T4, hLOX-5 (Homo sapiens, UniProt P09917); test: Inhibition of human lipoxygenase-5 (fluorescence-based, Pufahl); assay type: biochemical; details: three independent experiments
T4 sequence (P09917 1-674): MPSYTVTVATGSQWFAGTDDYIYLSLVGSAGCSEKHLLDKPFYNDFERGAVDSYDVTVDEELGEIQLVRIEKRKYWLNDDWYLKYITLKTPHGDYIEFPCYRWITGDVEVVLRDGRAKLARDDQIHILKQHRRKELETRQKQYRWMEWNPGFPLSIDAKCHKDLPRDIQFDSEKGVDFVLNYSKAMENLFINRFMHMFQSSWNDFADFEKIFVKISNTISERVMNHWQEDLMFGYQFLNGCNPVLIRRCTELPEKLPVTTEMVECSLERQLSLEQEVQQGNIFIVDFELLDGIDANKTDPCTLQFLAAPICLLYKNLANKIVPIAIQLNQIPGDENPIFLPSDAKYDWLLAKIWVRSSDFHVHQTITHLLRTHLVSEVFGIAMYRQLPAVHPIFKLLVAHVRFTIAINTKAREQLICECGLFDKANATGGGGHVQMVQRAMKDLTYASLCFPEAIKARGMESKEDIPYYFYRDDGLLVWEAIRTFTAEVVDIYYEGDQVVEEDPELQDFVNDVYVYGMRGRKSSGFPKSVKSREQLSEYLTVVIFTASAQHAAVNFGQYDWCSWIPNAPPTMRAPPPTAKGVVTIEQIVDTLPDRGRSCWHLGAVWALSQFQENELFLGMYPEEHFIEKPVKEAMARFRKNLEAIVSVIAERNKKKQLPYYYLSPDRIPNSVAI
Method: The fluorescence-based enzyme method developed by Pufahl et al. was followed, in 96-well microtiter plates. The assay solution consists of Tris buffer (50 mM, pH 7.5), ethylenediaminetetraacetic acid (EDTA, 2 mM), CaCl2 (2 mM), arachidonic acid (AA, 3 μM), ATP (10 μM), 2',7'-dichlorodihydrofluorescein diacetate (H2DCFDA, 10 μM), hLOX-5 (100 mU/well), bovine glutathione peroxidase (GPx, 25 mU/well) and reduced glutathione (GSH, 1 mM). Compounds to be tested were added to the test solution prior to AA and ATP, and pre-incubated for a period of 10 min at room temperature. Then, the AA and ATP substrates were added; the enzymatic reaction allowed to progress for 20 min and ended by the addition of 40 μL of acetonitrile.
A selection of new hybrids covering different structural motifs was assayed as inhibitors of hLOX-5, followed the method described by Pufahl et al.[55].

[5] = biological target: T5, σ2R (Rattus norvegicus, UniProt Q5U3Y7); test: Sigma-2 receptor binding, [3H]-DTG competition
T5 construct: 150 µg of rat liver homogenate were incubated; from tissue; host or cells: rat liver homogenate
T5 sequence (Q5U3Y7 1-176): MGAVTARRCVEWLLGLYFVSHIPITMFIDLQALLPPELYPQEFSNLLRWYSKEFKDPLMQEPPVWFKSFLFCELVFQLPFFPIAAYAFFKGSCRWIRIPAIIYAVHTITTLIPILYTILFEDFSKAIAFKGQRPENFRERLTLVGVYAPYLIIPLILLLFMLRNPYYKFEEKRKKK

[6] = biological target: T6, σ1R (Cavia porcellus, UniProt Q60492); test: Sigma-1 receptor binding, [3H]-(+)-pentazocine competition; design: species or system guinea pig
T6 construct: the thawed membrane preparation of guinea pig brain cortex; from tissue; host or cells: guinea pig brain cortex membranes

[7] = mean ± SEM, read-out: hLOX-5 IC50
[8] = mean ± SEM (n = 3), read-out: hAChE IC50

T6 sequence (Q60492 whole entry): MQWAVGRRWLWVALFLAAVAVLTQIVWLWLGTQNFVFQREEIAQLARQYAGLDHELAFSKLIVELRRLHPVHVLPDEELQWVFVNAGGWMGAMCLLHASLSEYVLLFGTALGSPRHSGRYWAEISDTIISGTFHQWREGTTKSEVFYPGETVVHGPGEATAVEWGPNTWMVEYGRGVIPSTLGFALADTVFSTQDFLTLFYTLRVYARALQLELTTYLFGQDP
T2 sequence (P22303 32-614): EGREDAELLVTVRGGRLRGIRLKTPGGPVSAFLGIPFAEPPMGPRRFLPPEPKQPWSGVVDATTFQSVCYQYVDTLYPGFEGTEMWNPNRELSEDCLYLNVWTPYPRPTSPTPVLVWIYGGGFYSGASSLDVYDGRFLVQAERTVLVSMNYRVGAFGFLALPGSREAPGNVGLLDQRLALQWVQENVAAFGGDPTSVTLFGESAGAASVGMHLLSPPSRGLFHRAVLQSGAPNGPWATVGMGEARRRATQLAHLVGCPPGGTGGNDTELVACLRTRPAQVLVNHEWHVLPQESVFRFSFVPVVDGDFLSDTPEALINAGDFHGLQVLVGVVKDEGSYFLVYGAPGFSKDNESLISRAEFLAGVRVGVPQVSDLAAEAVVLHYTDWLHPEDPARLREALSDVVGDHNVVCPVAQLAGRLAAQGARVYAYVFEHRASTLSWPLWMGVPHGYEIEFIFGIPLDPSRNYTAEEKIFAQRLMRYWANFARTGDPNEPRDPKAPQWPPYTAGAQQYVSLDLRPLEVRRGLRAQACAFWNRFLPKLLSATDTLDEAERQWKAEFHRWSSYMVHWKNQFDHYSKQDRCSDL

Structure (SMILES)	IC50 [1]	IC50 ([2]; hAChE IC50, mean ± SEM (n = 3))	IC50 [3]	IC50 [4, 7]	Ki [5]	preference for hMAO-A compared to hMAO-B [1]	IC50 [2, 8]	Ki [6]	Selectivity vs. σ1R (Kiσ2R/Kiσ1R) [6]	hLOX-5 IC50 ([4]; mean ± SEM)	Ki ([5]; rat liver homogenate, [3H]-DTG, mean ± SEM, read-out: Ki σ2R)	IC50 [6]	Ki ([6]; guinea pig brain cortex membranes, [3H]-(+)-pentazocine, mean ± SEM, read-out: Ki σ1R)	IC50 ([4]; hLOX-5 IC50, mean ± SEM)
COc1cc2oc(C(=O)Nc3ccc(CN(C)Cc4ccccc4)cc3)cc(=O)c2cc1OC [Compound 5, N-(4-((Benzyl(methyl)amino)methyl)phenyl)-6,7-dimethoxy-4-oxo-4H-chromene-2-carboxamide]	9000 ± 100 nM	990 nM and 1000 nM	8100 ± 400 nM	72400 ± 2200 nM	–	–	–	–	–	–	–	–	–	–
COc1ccc2oc(C(=O)Nc3ccc(CN(C)Cc4ccccc4)cc3)cc(=O)c2c1 [Compound 1, N-(4-((Benzyl(methyl)amino)methyl)phenyl)-6-methoxy-4-oxo-4H-chromene-2-carboxamide]	1600 ± 400 nM	–	59800 ± 3700 nM	12400 ± 500 nM	1780 ± 430 nM	at least 4.4 times	1500 ± 200 nM	480 ± 50 nM	3.7	–	–	–	–	–
CN(Cc1ccccc1)Cc1ccc(NC(=O)c2cc(=O)c3cc(O)ccc3o2)cc1 [Compound 2, N-(4-((Benzyl(methyl)amino)methyl)phenyl)-6-hydroxy-4-oxo-4H-chromene-2-carboxamide]	7000 ± 800 nM	–	9700 ± 1600 nM	> 100000 nM	1600 ± 280 nM	–	1300 ± 300 nM	380 ± 50 nM	4.2	inactive	–	–	–	–
COc1cc2oc(C(=O)Nc3cccc(CN(C)Cc4ccccc4)c3)cc(=O)c2cc1OC [Compound 6, N-(3-((Benzyl(methyl)amino)methyl)phenyl)-6,7-dimethoxy-4-oxo-4H-chromene-2-carboxamide]	> 100000 nM	4500 ± 800 nM	> 100000 nM	–	–	–	–	–	2.5	–	1300 ± 350 nM	530 nM and 500 nM	530 ± 70 nM	30000 nM and 30400 nM
